Assays:
[1] = system: lymphocyte responsiveness to allogenic stimulation; experiment: Mixed lymphocyte reaction test in mice, 1st variant (responder mice treated, ex vivo 3H thymidine incorporation); conditions: 5 mg/kg s.c., five days
Experimental: The ability of the compounds of the invention to reduce lymphocyte responsiveness to allogenic stimulation is measured in the mixed lymphocyte reaction test (MLR) wherein irradiated allogenic cells from stimulator mice induce a proliferative response in responder histo-incompatible cells.
Responder mice (Balb/c female, 8-10 weeks old) are treated sub-cutaneously for five days with the compounds of the invention. Equal numbers of murine stimulator lymphocytes (from stimulator, CBA, mice; lymphocytes irradiated in vitro with 200 R) and effector lymphocytes from the treated animals or control animals are incubated for five days. The 3H thymidine incorporated into lymphocyte DNA was used as a parameter for cell proliferation in response to an allogenic stimulus. [See S.S.Rich et al, J.Exp.Medicine, (1974), 140, 1588-1693].

[2] = system: Local graft versus host (GvH); experiment: Local graft versus host (GvH) reaction in the rat, lymph node weight; type: in vivo
Experimental: Spleen cells (ca 1 x 10⁷) are taken from 6 week old Wistar/Furth/(W/F) rats and are injected into the left hind paw of female (F 344 x WF) F1 rats weighing about 100 g. The rats had been treated daily with the compound from 7 days before the injection and are treated daily for 3 days thereafter. The difference in weight between the left and right lymph nodes is taken as the parameter for evaluating the reaction.

[3] = No toxic effect level (NTEL) / tolerability, repeated oral dosing in dogs; conditions: dog, in vivo, p.o.
Text: (§1) Toxicity data for some of the comounds of the invention have been published. Such data may be determined by routine experimentation. TOXICITY DATA for representative compounds NTEL = No toxic effect level.

[4] = system: basal serum prolactin levels; experiment: Lowering basal serum prolactin levels in the male rat (prolactin secretion inhibition); type: in vivo; conditions: lowering basal serum prolactin levels, male rat, after 4 hours; read-out: ID50 after 4 hours
Text: Many of the above mentioned compounds are published as prolactin secretion inhibitors, some of which are extremely potent and have long lasting activity. The potency of the compounds as prolactin secretion inhibitors can be determined in standard tests, e.g. by lowering basal serum prolactin levels in the male rat.
Results with representative compounds include:-

[5] = target: 5-HT sensitive adenylate cyclase; experiment: Activation of 5-HT sensitive adenylate cyclase of the liver fluke (method of Markstein); type: biochemical; conditions: adenylate cyclase stimulated by serotonin
Text: A group of compounds comprises compounds which are D₂ agonists without any antagonistic activity. Another group of compounds includes those compounds which are serotonin agonists, e.g. as indicated in standard in vitro binding tests and by activation of 5-HT sensitive adenylate cyclase of the liver fluke according to the method of R.Markstein, Neurochemical effects of some ergot derivatives: A basis for their antiparkinson actions. J.Neural transm 51:39, (1981).
Examples of such compounds include compound C and pergolide. Compound C, pergolide and 5-HT have efficacies of 90,80 and 100 respectively and pD₂ [log EC₅₀] of 6.9, 6.9 and 7.7 respectively in this test on adenylate cyclase stimulated by serotonin.

[6] = system: splenic lymphocytes forming lytic antibodies to the SRBC; experiment: Antibody producing cell development in the mouse (PFC test), plaque forming cells to SRBC; type: in vivo
Experimental: These methods permit the quantitation of the number of splenic lymphocytes forming lytic antibodies to the SRBC and the distinction between IgM and IgG producing cells.
The intravenous injection of SRBC (5 x 10⁷) in 0.2 ml i.v. served as the primary immunization antigen source in the mouse studies. The mice in these studies were female C57 black of ca 20 grams body weight. All animals were pretreated with the respective compounds for one day prior to the SRBC treatment and daily treated thereafter at 11.00 h for a total of 6 days. The spleens were removed for the determination of PFC numbers to the SRBC antigen.
The spleen cells were suspended in Hepes-buffered Balanced Salt Solution (HBSS), washed once, and resuspended in a volume adjusted according to the expected number of plaque forming cells. The direct quantitiation of IgM-PFC was performed by plaquing 0.1 ml of the diluted splenic cells with 0.025 ml of SRBC (30%), 0.3 ml Agar (0.5% in HBSS), and 0.025 ml complement (guinea pig serum) and plated on Petri dishes. An indirect method of IgG-PFC quantitation was performed with a monoclonal antibody to the IgM (1:4 dilution) plus an anti-gama polyspecific antiserum (1:800) to permit complement fixation. The splenic lymphocytes from each mouse spleen were plated to quantitate IgM- and IgG-PFC in duplicate. All plates were incubated for 4 hours at 37°C and then stored overnight in humidified chambers at 4°C. Plaques were counted by hand with the use of a plaque counter.

[7] = system: immuno-responsiveness of effector lymphocytes to histoincompatible (allogenic) lymphocytes; experiment: Mixed lymphocyte reaction test in mice, 2nd variant (both strains treated, ex vivo 3H-thymidine incorporation); conditions: at least 7 days
Experimental: The compounds furthermore inhibit the immuno-responsiveness of effector lymphocytes to histoincompatible (allogenic) lymphocytes in a variante of the above two way MLR (mixed lymphocyte reaction) test.
Mice of two histo-incompatible strains (Balb/c and CBA) (6-8 weeks old) were once daily treated s.c. with a compound of the invention for at least 7 days. The spleens are removed 3 hours after the last drug administration. The MLR test is effected with 0.5 x 10⁶ spleen cells from Balb/c mice and 0.5 x 10⁶ spleen cells from CBA mice the latter having been irradiated with 2000 rad. The spleen cells of the Balb-c mice are incubated with the allogenic CBA-spleen cells for 4 days. Radioactive thymidine is added and after 16 hours the incorporation of ³H-thymidine in the DNA of the mouse spleen cells was measured.

[8] = system: ornithine decarboxylase (ODC); experiment: Biosynthetic rate in the rat: ornithine decarboxylase activity in tissues after Complete Freund's adjuvant; type: in vivo; conditions: Freund's adjuvant treated rats
Experimental: The marker used in this study to determine the biosynthetic rate of the lymphoid and endocrine tissues was ornithine decarboxylase (ODC). ODC, the rate-limiting enzyme in polyamine biosynthesis, serves as a early marker of G₁ cell cycle progression of proliferating tissues and increased biosynthesis in secretory tissues, in response to trophic or stimulatory substances. There is a peak activity of ODC subsequent to stimulation in vivo within 4 hours - making this enzyme a useful intracellular marker for understanding the relationship between agonists and target tissue response. The ODC activity of lymphoid tissues appears to relate to a functional response to the immune system.
In a typical test method KFM male rats (150 - 175 g) were treated with the compound of the invention one day prior to the administration of Complete Freund's adjuvant in analogous manner to that described above. Administration of the compound was repeated once time per day afterwards. Two days later the animals were decapitated, the tissues removed and frozen in liquid nitrogen. The ODC activities (pmol/30 min./mg protein) are measured. The ODC activity was determined by measuring the liberation of 14CO₂ from L-(1-14C)-ornithine as described by Snyder et al Proc.Natl.Acad.Sci.60:1420, 1968.

[9] = Acute toxicity (LD50) in the mouse; conditions: in vivo
Text: as §1

[10] = No toxic effect level (NTEL), repeated oral dosing in rats; conditions: rat, in vivo, 4 weeks, p.o.
Text: as §1

Cc1[nH]c2cccc3c2c1C[C@@H]1[C@@H]3C[C@H](NC(=O)C(C)(C)C)CN1C [Compound E, (5R,8S,10R)-2,6-dimethyl-8α-pivaloylamino-ergoline]
dpm x 10^3/10 cells ± SD ([1]; 3H thymidine incorporation): 103218 ± 21497 dpm x 10^3/10 cells | inhibition at 5 mg/kg ([1]; Mus musculus, Lymphocyte, sc, 120 h, read-out: inhibited the response): ~21% | Weight lymph node ([2]; 5 mg/kg/day, control ca 55 mg): ca 39 mg | Percentage Difference ([2]; 5 mg/kg/day, versus control ca 55 mg): -41% | NOAEL at 672 h ([3]; over 4 weeks, Beagle dogs, read-out: Well tolerated dose): ≥ 3 mg/kg/day

CCCN1C[C@@H](NS(=O)(=O)N(CC)CC)C[C@@H]2c3cccc4[nH]cc(c34)C[C@H]21 [Compound C, 6-n-propyl-8α-(N,N,-diethylsulphamoylamino)-ergoline-I]
ED50 [4]: 0.001 mg/kg | pD₂ [log EC₅₀] [5]: 6.9 | percent change from control at 0.01 mg/kg/day ([6]; Mus musculus, Splenic lymphocyte, po, Test B, 0.01 mg/kg/day p.o., read-out: IgM % of control): -49% | percent change from control at 0.1 mg/kg/day ([6]; Mus musculus, Splenic lymphocyte, po, Test B, 0.1 mg/kg/day p.o., read-out: IgM % of control): -26% | percent change from control at 1 mg/kg/day ([6]; Mus musculus, Splenic lymphocyte, po, Test B, 1 mg/kg/day p.o., read-out: IgM % of control): -1% | IgM (PFC x 10^3 per spleen) ([6]; Test B, 0.01 mg/kg/day p.o.): 167.2 PFC x 10^3 per spleen | IgM (PFC x 10^3 per spleen) ([6]; Test B, 0.1 mg/kg/day p.o.): 244.4 PFC x 10^3 per spleen | IgM (PFC x 10^3 per spleen) ([6]; Test B, 1 mg/kg/day p.o.): 327.0 PFC x 10^3 per spleen | reduction of IgM titre ([6]; combination: Cyclosporine 60 mg/kg/day p.o. and Compound C 0.1 mg/kg/day p.o.): 63% | Change from control ([7]; 0.05 mg/kg s.c. once daily): -71% | Change from control ([7]; 0.5 mg/kg s.c. once daily): -50% | Change from control ([7]; 5 mg/kg s.c. once daily): -20% | Weight lymph node ([2]; 0.001 mg/kg/day, control ca 33 mg): 24 mg | Percentage Difference ([2]; 0.001 mg/kg/day, versus control ca 33 mg): -28% | Weight lymph node ([2]; 0.01 mg/kg/day, control ca 33 mg): 19 mg | Percentage Difference ([2]; 0.01 mg/kg/day, versus control ca 33 mg): -42% | Weight lymph node ([2]; 0.1 mg/kg/day, control ca 33 mg): 18 mg | Percentage Difference ([2]; 0.1 mg/kg/day, versus control ca 33 mg): -45% | ODC activities, Adrenal Medulla ([8]; 0.01 mg/kg): 17.10 pmol/30 min./mg protein | ODC activities, Anterior Pituitary ([8]; 0.01 mg/kg): 32.60 pmol/30 min./mg protein | ODC activities, Bone Marrow ([8]; 0.01 mg/kg): 17.40 pmol/30 min./mg protein | ODC activities, Lymph Nodes ([8]; 0.01 mg/kg): 43.10 pmol/30 min./mg protein | ODC activities, Spleen ([8]; 0.01 mg/kg): 12.14 pmol/30 min./mg protein | ODC activities, Thymus ([8]; 0.01 mg/kg): 98.80 pmol/30 min./mg protein | ODC activities, Adrenal Medulla ([8]; 0.1 mg/kg): 180.0 pmol/30 min./mg protein | ODC activities, Anterior Pituitary ([8]; 0.1 mg/kg): 33.70 pmol/30 min./mg protein | ODC activities, Bone Marrow ([8]; 0.1 mg/kg): 45.80 pmol/30 min./mg protein | ODC activities, Lymph Nodes ([8]; 0.1 mg/kg): 107.30 pmol/30 min./mg protein | ODC activities, Spleen ([8]; 0.1 mg/kg): 34.62 pmol/30 min./mg protein | ODC activities, Thymus ([8]; 0.1 mg/kg): 171.40 pmol/30 min./mg protein | ODC activities, Adrenal Medulla ([8]; 0.5 mg/kg): 95.0 pmol/30 min./mg protein | ODC activities, Anterior Pituitary ([8]; 0.5 mg/kg): 41.20 pmol/30 min./mg protein | ODC activities, Bone Marrow ([8]; 0.5 mg/kg): 43.40 pmol/30 min./mg protein | ODC activities, Lymph Nodes ([8]; 0.5 mg/kg): 103.90 pmol/30 min./mg protein | ODC activities, Spleen ([8]; 0.5 mg/kg): 37.96 pmol/30 min./mg protein | ODC activities, Thymus ([8]; 0.5 mg/kg): 177.0 pmol/30 min./mg protein | LD50 at 168 h ([9]; iv, over 7 days, read-out: acute LD₅₀ (mouse) i.v.): 45 mg/kg | LD50 at 336 h ([9]; po, over 14 days, read-out: acute LD₅₀ (mouse) p.o.): 69 mg/kg | NOAEL at 672 h [10]: 0.19 mg/kg/day | NOAEL at 672 h ([3]; no toxic effect level, 4 weeks, read-out: NTEL (4 weeks) dogs): 0.2 mg/kg/day

Reference: EP0231151A2, “Immunosuppressant agents” (priority 1986, dated 1987)
